Measurements taken from patent US8623870B2, “Pyridazinone derivatives” (Merck Patent GmbH, priority 2009, dated 2014).

Legend:
Met kinase [1] = target: T1, Met kinase (Homo sapiens, UniProt P08581); experiment: Met kinase inhibition (cell); assay type: cell-based
Target sequence in this assay (P08581 25-1390): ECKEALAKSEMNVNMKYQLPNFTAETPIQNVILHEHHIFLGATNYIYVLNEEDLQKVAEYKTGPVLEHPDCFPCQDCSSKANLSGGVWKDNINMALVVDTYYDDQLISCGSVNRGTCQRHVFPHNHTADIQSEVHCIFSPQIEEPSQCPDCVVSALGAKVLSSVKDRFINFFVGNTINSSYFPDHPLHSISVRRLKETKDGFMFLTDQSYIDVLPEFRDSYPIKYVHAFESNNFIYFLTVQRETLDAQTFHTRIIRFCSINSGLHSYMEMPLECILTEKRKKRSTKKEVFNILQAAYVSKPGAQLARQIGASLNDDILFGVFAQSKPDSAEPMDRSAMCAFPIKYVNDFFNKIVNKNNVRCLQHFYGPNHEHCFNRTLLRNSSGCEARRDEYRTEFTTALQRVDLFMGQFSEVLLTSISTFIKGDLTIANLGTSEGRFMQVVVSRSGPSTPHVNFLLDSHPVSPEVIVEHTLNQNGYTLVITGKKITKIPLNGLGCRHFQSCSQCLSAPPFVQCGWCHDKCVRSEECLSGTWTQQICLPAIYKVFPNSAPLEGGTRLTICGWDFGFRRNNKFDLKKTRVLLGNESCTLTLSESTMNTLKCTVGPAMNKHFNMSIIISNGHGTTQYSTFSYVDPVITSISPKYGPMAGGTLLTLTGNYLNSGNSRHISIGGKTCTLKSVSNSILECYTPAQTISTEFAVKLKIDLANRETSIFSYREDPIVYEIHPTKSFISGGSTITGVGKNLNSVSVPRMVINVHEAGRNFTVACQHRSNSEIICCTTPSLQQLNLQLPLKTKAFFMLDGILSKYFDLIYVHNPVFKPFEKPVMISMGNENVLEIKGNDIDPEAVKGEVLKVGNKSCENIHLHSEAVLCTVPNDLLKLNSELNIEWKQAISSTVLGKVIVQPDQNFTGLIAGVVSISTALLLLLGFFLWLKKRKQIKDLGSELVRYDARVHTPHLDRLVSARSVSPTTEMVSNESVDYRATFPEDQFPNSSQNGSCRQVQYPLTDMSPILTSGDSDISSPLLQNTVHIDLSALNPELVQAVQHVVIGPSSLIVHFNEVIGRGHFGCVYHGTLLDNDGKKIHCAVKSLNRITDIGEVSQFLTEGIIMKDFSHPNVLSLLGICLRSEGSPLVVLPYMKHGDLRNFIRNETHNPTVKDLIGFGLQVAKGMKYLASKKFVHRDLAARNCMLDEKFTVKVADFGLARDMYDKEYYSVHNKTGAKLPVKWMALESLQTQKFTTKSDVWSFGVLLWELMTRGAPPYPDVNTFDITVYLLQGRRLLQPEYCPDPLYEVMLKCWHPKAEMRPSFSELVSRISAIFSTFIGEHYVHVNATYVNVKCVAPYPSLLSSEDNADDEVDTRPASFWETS

Met kinase [2] = target: T1, Met kinase; experiment: Met kinase inhibition, flashplate method (enzyme); assay type: biochemical; parameters: 6His (N); purchased Upstate 14-526; host or cells: Sf21 insect cells (S. frugiperda), baculovirus
Excerpt: According to the manufacturer's data (Met, active, upstate, catalogue No. 14-526), Met kinase is expressed for the purposes of protein production in insect cells (Sf21; S. frugiperda) and subsequent affinity-chromatographic purification as “N-terminal 6His-tagged” recombinant human protein in a baculovirus expression vector.
The test plates used are 96-well Flashplate® microtitre plates from Perkin Elmer (Cat. No. SMP200). The components of the kinase reaction described below are pipetted into the assay plate. The Met kinase and the substrate poly Ala-Glu-Lys-Tyr, (pAGLT, 6:2:5:1), are incubated for 3 hrs at room temperature with radioactively labelled ^33P-ATP in the presence and absence of test substances in a total volume of 100 μl. The reaction is terminated using 150 μl of a 60 mM EDTA solution. After incubation for a further 30 min at room temperature, the supernatants are filtered off with suction, and the wells are washed three times with 200 μl of 0.9% NaCl solution each time. The measurement of the bound radioactivity is carried out by means of a scintillation measuring instrument (Topcount NXT, Perkin-Elmer).
The full value used is the inhibitor-free kinase reaction. This should be approximately in the range 6000-9000 cpm. The pharmacological zero value used is staurosporin in a final concentration of 0.1 mM. The inhibitory values (IC50) are determined using the RS1_MTS program.
• 30 μl of assay buffer • 10 μl of substance to be tested in assay buffer with 10% of DMSO • 10 μl of ATP (final concentration 1 μM cold, 0.35 μCi of ^33P-ATP) • 50 μl of Met kinase/substrate mixture in assay buffer; • (10 ng of enzyme/well, 50 ng of pAGLT/well)
Assay Buffer: • 50 mM HEPES • 3 mM magnesium chloride • 3 μM sodium orthovanadate • 3 mM manganese(II) chloride • 1 mM dithiothreitol (DTT) • pH=7.5 (to be set using sodium hydroxide)
Stop Solution: • 60 mM Titriplex III (EDTA) • ^33P-ATP: Perkin-Elmer; • Met kinase: Upstate, Cat. No. 14-526, Stock 1 μg/10 μl; spec. activity 954 U/mg; • Poly-Ala-Glu-Lys-Tyr, 6:2:5:1: Sigma Cat. No. P1152 In-vivo Tests
Target sequence in this assay (P08581 974-1390 limits assumed): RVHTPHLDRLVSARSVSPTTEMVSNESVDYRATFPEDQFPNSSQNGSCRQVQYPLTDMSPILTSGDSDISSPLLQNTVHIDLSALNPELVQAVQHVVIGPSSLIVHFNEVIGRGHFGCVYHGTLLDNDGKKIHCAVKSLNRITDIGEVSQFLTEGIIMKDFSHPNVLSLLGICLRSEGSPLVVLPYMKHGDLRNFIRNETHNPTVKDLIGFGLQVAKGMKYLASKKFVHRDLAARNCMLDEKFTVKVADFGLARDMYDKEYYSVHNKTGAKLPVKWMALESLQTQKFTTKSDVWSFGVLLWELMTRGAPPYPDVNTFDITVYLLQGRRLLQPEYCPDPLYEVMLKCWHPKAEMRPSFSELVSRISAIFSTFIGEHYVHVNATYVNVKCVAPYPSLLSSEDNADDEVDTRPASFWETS

| IC50 (Met kinase [1]) | IC50 (Met kinase [2]) | Compound |
| --- | --- | --- |
| 0.001 to 0.1 µM | 0.001 to 0.1 µM | O=c1ccc(-c2cc(F)cc(F)c2)nn1Cc1cccc(-c2ncc(-c3cnn(C4CCNCC4)c3)s2)c1 [Compound A1, 6-(3,5-difluorophenyl)-2-{3-[5-(1-piperidin-4-yl-1H-pyrazol-4-yl)thiazol-2-yl]benzyl}-2H-pyridazin-3-one] |
| 0.001 to 0.1 µM | 0.001 to 0.1 µM | O=c1ccc(-c2cccc(F)c2)nn1Cc1cccc(-c2ncc(-c3cnn(C4CCNCC4)c3)s2)c1 [Compound A2, 6-(3-fluorophenyl)-2-{3-[5-(1-piperidin-4-yl-1H-pyrazol-4-yl)thiazol-2-yl]benzyl}-2H-pyridazin-3-one] |
| 0.001 to 0.1 µM | 0.001 to 0.1 µM | O=c1ccc(-c2cc(F)cc(F)c2)nn1Cc1cccc(-c2ncc(-c3cnn(C4CCNCC4)c3)o2)c1 [Compound A6, 6-(3,5-difluorophenyl)-2-{3-[5-(1-piperidin-4-yl-1H-pyrazol-4-yl)oxazol-2-yl]benzyl}-2H-pyridazin-3-one] |
| 0.001 to 0.1 µM | 0.001 to 0.1 µM | Cn1cc(-c2nc(-c3cccc(Cn4nc(-c5cc(F)cc(F)c5)ccc4=O)c3)no2)cn1 [Compound A8, 6-(3,5-difluorophenyl)-2-{3-[5-(1-methyl-1H-pyrazol-4-yl)-1,2,4-oxadiazol-3-yl]benzyl}-2H-pyridazin-3-one] |
| 0.1 to 10 µM |  | O=c1ccc(-c2cc(F)cc(F)c2)nn1Cc1cccc(-c2noc(-c3ccco3)n2)c1 [Compound A9, 6-(3,5-difluorophenyl)-2-[3-(5-furan-2-yl-1,2,4-oxadiazol-3-yl)benzyl]-2H-pyridazin-3-one] |
| 0.001 to 0.1 µM | 0.001 to 0.1 µM | Cc1ccc(-c2nc(-c3cccc(Cn4nc(-c5cc(F)cc(F)c5)ccc4=O)c3)no2)cn1 [Compound A10, 6-(3,5-difluorophenyl)-2-{3-[5-(6-methylpyridin-3-yl)-1,2,4-oxadiazol-3-yl]-benzyl}-2H-pyridazin-3-one] |
